Results on 9 molecules are retold here after PubChem BioAssay (NCI).

Test in all cases: growth of human tumour cells (NCI), 48 h
Test [1] has as its system HCC-2998 colon.
Test [2] has as its system HS 578T breast.
Test [3] relates to HT29 colon.
In test [4] the test system is IGROV1 ovarian.
Test [5] has as its system KM12 colon.
In test [6] the test system is MCF7 breast.
Test [7] has as its system MDA-N.
In test [8] the test system is SF-295 CNS.
The test system of test [9] is SN12C renal.
The subject of test [10] is SNB-19 CNS.
Test [11] deals with SR leukemia.
For test [12], the system named is U251 CNS.
The subject of test [13] is UACC-257 melanoma.
The subject of test [14] is UO-31 renal.
For test [15], the system named is HCT-15 colon.
Test [16] deals with SF-539 CNS.

The structures appear in SMILES notation.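 Following 48 hours of exposure in 96-well plates, responses at five concentrations were used to interpolate endpoints linearly. TGI is the concentration that stops growth completely.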 Bounds are passed on as bounds.

`Cc1ccc(S(=O)(=O)N2CCCC2C(=O)O[C@H]2CC[C@H]3CC=C[C@H]32)cc1` (some centres undefined): the TGI in [1] is above 100 µM; in [2], above 100 µM; in test [3] it was above 100 µM; in test [4], above 100 µM; in test [5], above 100 µM; in test [6], 78.8 µM. In addition, the TGI in test [7] is above 100 µM; in test [8], above 100 µM; in test [9] it was above 100 µM; in test [10], above 100 µM; in test [11], above 69.6 µM; in test [12], above 100 µM. Moreover, the TGI was 67.4 µM in test [13] and above 100 µM in [14].

As for `O=C(Nc1ccccc1F)c1cc2ccc(O)cc2oc1=Nc1cccc(C(F)(F)F)c1`, the TGI in test [1] was above 100 µM; in test [15], 10.9 µM; in test [2] it was 7.75 µM; in test [3] it was above 100 µM; in test [4], 5.54 µM; in [5], 26.8 µM. The TGI in test [6] is above 100 µM; in test [7] it was above 100 µM; in test [8], above 100 µM; in test [16], 22.3 µM; in test [10], above 100 µM; in test [11], 17.7 µM. The TGI is 19.3 µM in [12], above 100 µM in [13] and 15.5 µM in test [14].

On to `CCCCC(=O)Oc1ccc2c(C)cc(=O)oc2c1`, for which the TGI in test [1], in [2], in [3], in [4], in test [5] and in test [6] was above 100 µM each time. Further, the TGI in test [7], in test [8], in test [16], in test [9], in test [10] and in test [11] was above 100 µM throughout. In addition, the TGI in test [12], in test [13] and in test [14] was above 100 µM throughout.

Consider `CC#CCCN(CC#N)Cc1ccccc1`, for which the TGI in test [1], in test [15], in test [2], in test [3], in [4] and in test [5] was above 100 µM in each case. In addition, the TGI in test [6] was 44.7 µM; in test [7] it was above 100 µM; in test [8], above 100 µM; in test [9], above 100 µM; in test [10], above 100 µM; in [11] it was above 100 µM. For the same molecule, the TGI in [12], in test [13] and in [14] was above 100 µM in each case.

For the molecule `Cc1cn(C2CC(N)C(C(=O)O)O2)c(=O)[nH]c1=O` (centres undefined), the TGI in test [1], in test [15], in test [2], in test [3], in test [4] and in test [5] was above 100 µM throughout. Moreover, the TGI in test [6], in test [7], in [16], in test [9], in [10] and in test [11] was above 100 µM in each case. Further, the TGI in [12], in test [13] and in test [14] was above 100 µM each time.

With `COc1cc(/C=C/c2cc(/C=C/c3ccc(O)c(OC)c3)oc(=O)c2)ccc1O`, the TGI is above 34.4 µM in [15]; above 85.3 µM in test [2]; above 22.6 µM in test [3]; 19.9 µM in [4]; 18 µM in [5]; above 100 µM in test [6]. In addition, the TGI in test [7] was above 100 µM; in test [8] it was 19.4 µM; in [16] it was above 100 µM; in test [9], above 71.4 µM; in test [10], above 100 µM; in [11], above 31.2 µM. Moreover, the values for the TGI in test [12], in test [13] and in test [14] were above 51.8 µM, above 29.6 µM and above 100 µM, respectively.

As for `C=C(Cl)C(=C)CCC(Cl)C(C)C` (centres undefined), the TGI in test [1], in test [2], in test [3], in test [4], in test [5] and in test [6] was above 100 µM in each case. Moreover, the TGI in [7], in test [8], in test [16], in [9], in test [10] and in test [11] was above 100 µM in each case. In addition, the TGI in test [12], in test [13] and in [14] was above 100 µM each time.

Consider `CCc1c(Cc2cc(C)cc(C)c2)n2c(nc1=O)SCC2CBr` (centres undefined), for which the TGI in test [1], in test [15], in [2], in test [3], in [4] and in test [5] was above 50 µM throughout. Besides, the TGI in [6], in [7], in [16], in test [9], in [10] and in test [11] was above 50 µM in each case. The TGI in test [12], in [13] and in test [14] was above 50 µM in each case.

Turning to `CC(C)C1OC(/C=C/c2ccccc2)OCC1(C)C` (centres undefined), the TGI in test [1] was 38.5 µM; in test [15], above 100 µM; in test [2], 88.7 µM; in test [3] it was above 100 µM; in [4] it was above 100 µM; in test [5], above 100 µM. Besides, the TGI in test [6] is above 100 µM; in test [7], above 100 µM; in [8], above 100 µM; in test [9], 44 µM; in [10], above 100 µM; in test [11] it was above 100 µM. Further, the TGI in [12] was 60.8 µM; in test [13], 63.6 µM; in test [14], above 100 µM.
